Measured values published in the supplement of paper PMC10331698.
± gives the standard deviation of the averaged measurements.

Tests used:
Test in all cases: level (log10 ratio to DMSO vehicle control); higher = higher biomarker level / cell amount than vehicle control
Conditions in all cases: in DMSO
[1] = compound: COC(=O)C(F)(F)C(F)(F)OC(F)(C(F)(F)F)C(F)(F)OC(F)=C(F)F [Methyl perfluoro(3-(1-ethenyloxypropan-2-yloxy)propanoate)]
Description: (§1)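 BioMAP Diversity Plus panel of 12 human primary cell co-culture systems (3C, 4H, LPS, SAg, BT, BF4T, BE3C, CASM3C, HDF3CGF, KF3CT, MyoF, Mphg). Compounds were added 1 h before stimulation and left for 24 h (MyoF 48 h; BT 72 h for soluble read-outs or 6 d for IgG). Biomarkers were read by ELISA, cytotoxicity by SRB, PBMC viability and proliferation by Alamar Blue. Each well value was divided by the mean of 8 DMSO control wells on the same plate and log10 transformed; duplicate blinded samples were tested at 4 concentrations.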

[2] = compound: NC(=O)C(F)(F)C(F)(F)C(F)(F)C(F)F
Description: as §1

[3] = compound: FC(F)(F)C(F)(F)C(F)(F)CI [Heptafluorobutyl iodide]
Description: as §1

[4] = compound: NC(=O)C(F)(F)C(F)(F)C(F)(F)C(F)(F)F [Nonafluoropentanamide]
Description: as §1

[5] = compound: FC(F)(F)C(F)(F)C(F)(F)CC1CO1 [1H,1H-Heptafluorobutyl epoxide]
Description: as §1

[6] = compound: O=C(O)C(F)(F)C(F)(F)C(F)(F)C(F)(F)C(F)(F)C(F)(F)C(F)(F)C(F)(F)C(F)(F)C(F)F [11-H-Perfluoroundecanoic acid]
Description: as §1

[7] = compound: FC(F)(F)C(F)(F)C(F)(F)C(F)(F)C(F)(F)C(F)(F)CC1CO1 [3-(Perfluorohexyl)-1,2-epoxypropane]
Description: as §1

| Test System | level (log10) ([1]; 6700 nM) | level (log10) ([1]; 20000 nM) | level (log10) ([2]; 6700 nM) | level (log10) ([2]; 20000 nM) | level (log10) ([2]; 60000 nM) | level (log10) ([3]; 6700 nM) | level (log10) ([3]; 20000 nM) | level (log10) ([3]; 60000 nM) | level (log10) ([4]; 6700 nM) | level (log10) ([4]; 20000 nM) | level (log10) ([4]; 60000 nM) | level (log10) ([5]; 6700 nM) | level (log10) ([5]; 20000 nM) | level (log10) ([5]; 60000 nM) | level (log10) ([6]; 6700 nM) | level (log10) ([6]; 20000 nM) | level (log10) ([7]; 6700 nM) | level (log10) ([7]; 20000 nM) | level (log10) ([7]; 60000 nM) |
| --- | --- | --- | --- | --- | --- | --- | --- | --- | --- | --- | --- | --- | --- | --- | --- | --- | --- | --- | --- |
| CASM3C:Serum Amyloid A | 0.007 ± 0.011 | 0.009 ± 0.023 | -0.054 ± 0.071 | -0.0535 ± 0.026 | -0.003 ± 0.024 | -0.027 ± 0.0014 | 0.0075 ± 0.0021 | 0.0035 ± 0.012 | -0.016 ± 0.018 | -0.018 ± 0.0057 | 0.008 ± 0.013 | 0.0025 ± 0.012 | 0.003 ± 0.035 | 0.032 ± 0.061 | 0.0155 ± 0.00071 | 0.0205 ± 0.036 | -0.0115 ± 0.042 | -0.012 ± 0.013 | 0.031 ± 0.023 |
| HDF3CGF:CCL2/MCP-1 | 0.023 ± 0.0042 | 0.0305 ± 0.029 | -0.017 ± 0.054 | -0.004 ± 0.04 | 0.0095 ± 0.028 | -0.01 ± 0.0057 | -0.013 ± 0.0057 | -0.0025 ± 0.025 | -0.0025 ± 0.019 | 0.0065 ± 0.012 | 0.01 ± 0.035 | -0.0325 ± 0.032 | -0.034 ± 0.02 | -0.02 ± 0.0099 | 0.0125 ± 0.0064 | -0.065 ± 0.014 | -0.0165 ± 0.0021 | -0.0045 ± 0.019 | 0.0055 ± 0.03 |
| HDF3CGF:CD54/ICAM-1 | -0.0155 ± 0.0092 | -0.029 ± 0.025 | -0.0045 ± 0.0064 | 0.0045 ± 0.0035 | 0.001 ± 0.0071 | -0.004 ± 0.0028 | 0.0005 ± 0.005 | 0.002 ± 0.0028 | -0.0065 ± 0.011 | -0.01 ± 0.0085 | 0 ± 0.0042 | -0.0045 ± 0.022 | -0.0115 ± 0.04 | -0.0215 ± 0.06 | -0.058 ± 0.0085 | -0.0635 ± 0.0035 | -0.01 ± 0.018 | -0.0095 ± 0.0092 | -0.021 ± 0.034 |
| HDF3CGF:CD106/VCAM-1 | -0.133 ± 0.0057 | -0.313 ± 0.0099 | -0.0285 ± 0.019 | -0.014 ± 0.024 | -0.04 ± 0.078 | 0.0715 ± 0.03 | 0.0695 ± 0.057 | 0.0585 ± 0.076 | 0.008 ± 0.028 | 0.0185 ± 0.03 | -0.0085 ± 0.037 | 0.013 ± 0.0099 | -0.017 ± 0.0014 | -0.04 ± 0.021 | -0.085 ± 0.051 | -0.234 ± 0.0064 | -0.001 ± 0.025 | -0.01 ± 0.0057 | -0.057 ± 0.016 |
| HDF3CGF:CXCL10/IP-10 | -0.018 ± 0.062 | -0.203 ± 0.03 | -0.001 ± 0.0014 | -0.0065 ± 0.0021 | 0.002 ± 0.011 | 0.0035 ± 0.012 | -0.007 ± 0.011 | -0.017 ± 0.014 | -0.012 ± 0.0014 | -0.0055 ± 0.00071 | -0.004 ± 0.0014 | -0.0275 ± 0.0078 | -0.0285 ± 0.053 | -0.054 ± 0.054 | -0.117 ± 0.011 | -0.331 ± 0.0071 | 0.005 ± 0.031 | 0.012 ± 0.034 | -0.0095 ± 0.037 |
| HDF3CGF:Collagen I | 0.013 ± 0.095 | 0.069 | -0.005 ± 0.058 | 0.005 ± 0.021 | 0.027 ± 0.02 | 0.0275 ± 0.03 | 0.021 ± 0.0099 | 0.065 ± 0.047 | 0.02 ± 0.031 | 0.013 ± 0.057 | 0.067 ± 0.033 | -0.0105 ± 0.029 | 0.0175 ± 0.023 | -0.013 ± 0.028 | -0.093 ± 0.034 | -0.077 ± 0.025 | -0.001 ± 0.025 | -0.0145 ± 0.012 | 0.0545 ± 0.04 |
| HDF3CGF:Collagen III | -0.059 ± 0.072 | -0.079 ± 0.016 | -0.011 ± 0.0042 | -0.0155 ± 0.012 | -0.0165 ± 0.00071 | -0.043 ± 0.12 | -0.051 ± 0.018 | -0.0075 ± 0.11 | 0.033 ± 0.0014 | 0.026 ± 0.0014 | 0.049 ± 0.0099 | -0.0355 ± 0.1 | -0.0515 ± 0.1 | -0.0555 ± 0.1 | -0.172 ± 0.033 | -0.294 ± 0.03 | -0.0075 ± 0.012 | -0.005 ± 0.0099 | 0.0155 ± 0.046 |
